Results reported in patent US20040110771A1, “7-(r)-aminotriazolopyrimidines, the production thereof and use of the same for combatting phytopathogenic fungi” (priority 2000, published 2004).

Columns and labels:
Type in all cases: in vivo
Puccinia recondita = experiment: Curative activity against brown rust of wheat caused by Puccinia recondita; conditions: curative spray 24 h after inoculation, wheat seedlings "Kanzler", 7 days
In short: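 Wheat seedlings (cv. Kanzler) inoculated with brown rust spores and held 24 h at 90–95% humidity and 20–22°C, then sprayed to runoff with the emulsified compound the next day. Rust development on leaves scored after 7 days in greenhouse at 20–22°C and 65–70% relative humidity.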

Septoria tritici = experiment: Protective activity against Septoria foliar blotch disease of wheat caused by Septoria tritici; conditions: wheat seedlings "Riband", inoculated 24 h after spraying, 2 weeks
Experimental: The active compounds were prepared separately or jointly as a 10% strength emulsion in a mixture of 70% by weight of cyclohexanone, 20% by weight of Nekanil® LN (Lutensol® AP6, wetting agent having emulsifying and dispersing action based on ethoxylated alkylphenols) and 10% by weight of Wettol® EM (nonionic emulsifier based on ethoxylated castor oil) and diluted with water to the desired concentration.
Leaves of potted wheat seedlings of the cultivar “Riband” were sprayed to runoff point with an aqueous preparation of active compound which had been prepared from a stock solution made of 10% of active compound, 85% of cyclohexanone and 5% of emulsifier. 24 hours after the spray coating had dried on, they were inoculated with an aqueous spore suspension of Septoria tritici. The suspension contained 2.0×10^6 spores/ml. The test plants were then placed in a greenhouse at 18-22° C. and a relative atmospheric humidity of close to 100%. After 2 weeks, the extent of the development of the disease was determined visually in % infection of the entire leaf area.

[1] = tested on: Blumeria graminis forma specialis tritici; experiment: Activity against mildew of wheat caused by Blumeria graminis forma specialis tritici; conditions: wheat seedlings "Kanzler", dusted with spores 24 h after spraying, 7 days
In short: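 Compound, emulsified then diluted in water, sprayed to runoff onto leaves of potted wheat seedlings cv. Kanzler; inoculated with Blumeria graminis f. sp. tritici spores 24 h after the coating dried. Plants kept in greenhouse at 20-24° C., 60-90% relative humidity; mildew scored visually after 7 days as % infected leaf area.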

Pyrenophora teres = experiment: Activity against net blotch of barley caused by Pyrenophora teres; conditions: barley seedlings "Igri", inoculated 24 h after spraying, 6 days
In short: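 Potted barley seedlings (cv. Igri) were sprayed to runoff with aqueous compound preparation, then inoculated with P. teres spores 24 h after the spray dried. Plants were kept in a greenhouse at 20-24° C and 95-100% relative humidity, and disease was scored visually after 6 days as % infected leaf area.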

Compound	% infection of the leaves after application of an aqueous preparation comprising . . . ppm of active compound (Puccinia recondita; 250 ppm)	% infection of the leaves after application of an aqueous preparation comprising . . . ppm of active compound (Septoria tritici; 16 ppm)	% infection of the leaves after application of an aqueous preparation comprising . . . ppm of active compound (Septoria tritici; 63 ppm)	% infection of the leaves after application of an aqueous preparation comprising . . . ppm of active compound (Septoria tritici; 250 ppm)	% infection of the leaves after application of an aqueous preparation comprising . . . ppm of active compound ([1]; 16 ppm)	% infection of the leaves after application of an aqueous preparation comprising . . . ppm of active compound ([1]; 63 ppm)	% infection of the leaves after application of an aqueous preparation comprising . . . ppm of active compound ([1]; 250 ppm)	% infection of the leaves after application of an aqueous preparation comprising . . . ppm of active compound (Pyrenophora teres; 16 ppm)	% infection of the leaves after application of an aqueous preparation comprising . . . ppm of active compound (Pyrenophora teres; 63 ppm)	% infection of the leaves after application of an aqueous preparation comprising . . . ppm of active compound (Puccinia recondita; 16 ppm)	% infection of the leaves after application of an aqueous preparation comprising . . . ppm of active compound (Puccinia recondita; 63 ppm)	% infection of the leaves after application of an aqueous preparation comprising . . . ppm of active compound (Pyrenophora teres; 250 ppm)
CC(Nc1c(-c2ccccc2Cl)c(Cl)nc2ncnn12)C(C)(C)C (single isomer, unassigned) [I.-44a]	60%	60%	7%	7%	50%	30%	30%	60%	7%	–	–	–
CC(C)[C@@H](C)Nc1c(-c2c(F)cccc2Cl)c(Cl)nc2ncnn12 [I.-2]	5%	0%	0%	0%	–	40%	40%	–	–	15%	5%	–
CCC(C)Nc1c(-c2c(F)cccc2F)c(Cl)nc2ncnn12 (centres unmarked) [I.-4]	10%	20%	15%	3%	80%	60%	60%	–	–	40%	20%	–
CC(C)C(C)Nc1c(-c2c(F)cccc2F)c(Cl)nc2ncnn12 (centres unmarked) [I.-5]	10%	15%	15%	15%	40%	40%	20%	20%	–	–	10%	–
CCC(C)Nc1c(-c2c(Cl)cccc2Cl)c(Cl)nc2ncnn12 (centres unmarked) [I.-7]	–	70%	30%	15%	–	–	60%	80%	30%	40%	–	15%
CC[C@@H](C)Nc1c(-c2c(F)cc(OC)cc2F)c(Cl)nc2ncnn12 [I.-16]	–	–	70%	70%	40%	40%	20%	–	–	7%	0%	–
